Source: PubChem BioAssay (NCI)
“And” between values parts separate entries of the source, which are not always exact repeats. Equal entries are not always repeated.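 Assay format: 96-well plates, 48-hour exposure. GI50: concentration for 50% inhibition of growth. At the TGI there is no net growth.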

Key:
Experiment in all cases: DTP human tumour cell line panel, 48 h
T-47D breast = tested on: T-47D breast
UO-31 renal = tested on: UO-31 renal
SF-295 CNS = tested on: SF-295 CNS
HS 578T breast = tested on: HS 578T breast
HT29 colon = tested on: HT29 colon
HCC-2998 colon = tested on: HCC-2998 colon
UACC-62 melanoma = tested on: UACC-62 melanoma
COLO 205 colon = tested on: COLO 205 colon
NCI-H23 lung = tested on: NCI-H23 lung
786-0 renal = tested on: 786-0 renal

SMILES | TGI (T-47D breast) | TGI (UO-31 renal) | TGI (SF-295 CNS) | TGI (HS 578T breast) | TGI (HT29 colon) | TGI (HCC-2998 colon) | TGI (UACC-62 melanoma) | TGI (COLO 205 colon) | TGI (NCI-H23 lung) | TGI (786-0 renal) | GI50 (T-47D breast) | GI50 (UO-31 renal) | GI50 (SF-295 CNS) | GI50 (HS 578T breast) | GI50 (HT29 colon) | GI50 (HCC-2998 colon) | GI50 (UACC-62 melanoma) | GI50 (COLO 205 colon) | GI50 (NCI-H23 lung) | GI50 (786-0 renal)
CCN1C(NN)=NS(=O)(=O)c2ccccc21 | > 100 µM | > 100 µM | > 100 µM | > 100 µM | > 100 µM | > 100 µM | > 100 µM | > 100 µM | > 100 µM | > 100 µM |  |  |  |  |  |  |  |  |  | 
O=C(O)CCC(=O)c1ccc2ccc3cccc4ccc1c2c34 | > 100 µM | > 100 µM | > 100 µM | > 100 µM | > 100 µM | > 100 µM | > 100 µM | > 100 µM | > 100 µM | > 100 µM |  |  |  |  |  |  |  |  |  | 
Cc1cc(C2=NNC(=O)Cc3cc4c(cc32)OCCO4)cc(C)c1N | > 100 µM | > 100 µM | 2.87 µM | > 100 µM | > 100 µM | 44 µM | > 100 µM | 11.2 µM | > 100 µM | > 100 µM | 4.41 µM | 3.83 µM | 0.47 µM | 3.05 µM | 0.746 µM | 3.26 µM | 3.59 µM | 1.55 µM | 2.89 µM | 5.27 µM
COC(=O)[C@]12CC[C@@H](C)[C@H](C)[C@@H]1C1=CC[C@@H]3[C@@]4(C)C(C=O)=C[C@@](C)(COC(=O)c5ccco5)[C@@H]4C(=O)C[C@@]3(C)[C@]1(C)CC2 | 50.6 µM | > 100 µM | > 100 µM | > 100 µM | > 100 µM | > 100 µM | 2.34 µM | 0.0971 µM | > 100 µM | > 100 µM | 3.71 µM | 3.54 µM | 3.99 µM | 9.68 µM | 7.92 µM | 6.22 µM | 0.232 µM | 0.0314 µM | 4.33 µM | 7.81 µM
CCOC(=O)C1=C(C)NC2SC(=O)/C(=C\c3ccccc3O)N2C1c1ccccc1 (stereo unspecified) | 51.7 µM | 66.8 µM | > 100 µM | 50.2 µM | 41.4 µM | 64.8 µM | 41.8 µM | 72.8 µM | 53.5 µM | > 100 µM | 16.1 µM | 21.9 µM | 27.2 µM | 17.4 µM | 19.5 µM | 26.5 µM | 18 µM | 23.2 µM | 24.5 µM | 28.6 µM
CC(=O)c1c(C)n(C)c2c1nnc1ccccc12 | > 100 µM | 8.11 µM | > 100 µM | > 100 µM | > 100 µM | > 100 µM | > 100 µM | > 100 µM | > 100 µM | > 100 µM |  |  |  |  |  |  |  |  |  | 
CN(C)c1ccc(/C=C(\C#N)c2nc3ccccc3n2C)cc1 | 27.2 µM | > 100 µM | 16.9 µM | > 26.5 µM | > 33.3 µM | 27.7 µM | 37.2 µM | 9.26 µM | > 88.5 µM | 99 µM | 3.08 µM | 6.96 µM | 1.9 µM | 2.84 µM | 0.742 µM | 4.43 µM | 2.04 µM | 1.63 µM | 4.51 µM | 8.77 µM
O=C([O][Hg][CH2]C1COC([CH2][Hg][O]C(=O)c2ccccc2)CO1)c1ccccc1 (stereo unspecified) | 4.06 µM and 4.17 µM | 31.5 µM | 41.7 µM and 31.6 µM | 82.6 µM | 30.5 µM and 3.26 µM | 32.2 µM and 9.35 µM | 30.4 µM and 5.09 µM | 4.25 µM and 5.21 µM | 23.3 µM | 8.5 µM and 2.99 µM | 1.88 µM and 1.7 µM | 17.7 µM | 19.2 µM and 17.8 µM | 21.8 µM | 15.7 µM and 1.7 µM | 17.6 µM and 3.65 µM | 16.7 µM and 2.26 µM | 1.98 µM and 1.07 µM | 9.82 µM | 2.88 µM and 1.47 µM
COc1ccc2c(c1)C(=O)c1c-2c(Nc2ccc(C(C)=O)cc2)nc2ccccc12 | > 100 µM | > 100 µM | > 100 µM | > 100 µM | > 100 µM | > 100 µM | > 100 µM | > 100 µM | 99.2 µM | 32.2 µM | 77.2 µM | > 100 µM | 33.8 µM | 8.39 µM | 43.7 µM | 97.1 µM | 21.9 µM | > 100 µM | 18 µM | 12.3 µM
C[C@@H]1CC[C@@H]2[C@@H]1[C@H](OC(=O)/C=C/c1ccccc1)[C@]1(C3CCCCC3)C[C@@H](NC(=O)CO)[C@@]2(C)O1 | 30.8 µM | 18.7 µM | 28.4 µM | 9.21 µM | 35.5 µM | 35.1 µM | 30.3 µM | 33.5 µM | 38.4 µM | 29.3 µM | 14.3 µM | 4.8 µM | 14.9 µM | 2.79 µM | 18.9 µM | 18.3 µM | 16.2 µM | 16.6 µM | 18.9 µM | 14.9 µM
CC(=O)OCC(=O)O[C@@H]1C[C@]2(C(C)C)O[C@@]1(C)[C@@H]1CC[C@@H](C)[C@H]1[C@@H]2OC(=O)/C=C/c1ccccc1 | > 97.2 µM | 0.242 µM | 43.9 µM | 0.0363 µM | > 100 µM | 75.3 µM | 38.3 µM | 84.6 µM | 99.1 µM | 18.9 µM | 8.81 µM | 0.0336 µM | 17 µM | < 0.0116 µM | 23.6 µM | 20 µM | 14.1 µM | 24.2 µM | 23.7 µM | 0.931 µM
CN(N=O)C(=O)N[C@@H](C=O)[C@@H](O)[C@H](O)[C@H](O)CO | > 750 µM | > 750 µM | 621 µM and > 750 µM | > 750 µM | > 750 µM | 600 µM and > 750 µM | > 750 µM | 640 µM and > 750 µM | > 750 µM | > 750 µM |  | > 750 µM | > 750 µM |  | > 750 µM | > 750 µM | > 750 µM | > 750 µM | > 750 µM | > 750 µM
O=C1C2=Nc3ccccc3C(O)N2c2ccccc21 (stereo unspecified) | > 100 µM | > 100 µM | > 100 µM | > 100 µM | > 100 µM | > 94.3 µM | 12.9 µM | > 100 µM | 28.8 µM | > 100 µM |  |  |  |  |  |  |  |  |  | 
CC(=O)c1cc2c(cc1Nc1c3ccccc3nc3occ(Cl)c13)OCO2 | > 100 µM | > 100 µM | 0.188 µM | > 69.6 µM | > 100 µM | 0.37 µM |  | > 37.9 µM | 2.23 µM | > 44.3 µM |  | 1.09 µM | 0.0402 µM | 0.109 µM | 0.439 µM | 0.187 µM | 0.271 µM | 0.391 µM | 0.238 µM | 0.291 µM
